Square brackets hold non-standard residues; d marks the D form. Ends that are not written are not given here. Peptide text beside a SMILES is read from it.
Key:
HylA = target: T1, HylA (Cutibacterium acnes, UniProt A0A2B7ICX0); test: Microscale thermophoresis (MST) measurement of HylA binding to peptide inhibitors; parameters: species or system C. acnes
T1 construct: HylA (41-805) were cloned into; His6 (N); MBP (N); made in house; host or cells: E. coli BL21(DE3) pLysS
Experimental: The Monolith NT.115 instrument (Nanotemper Technologies, München, Germany) was used to measure the binding of peptide inhibitors to the HylA. For the MST experiment, the HylA is fluorescently labeled by cysteine labeling by using the Monolith protein labeling kit RED-MALEIMIDE 2nd generation (Catalog Number: L014). The assay is performed in 100 mM Sodium acetate buffer pH 5.3 supplied with 0.05% Tween-20. A serial dilution of the 1932 peptide (50 μM through 1.5 nM) was titrated against 30 nM fluorescent labeled HylA. For the titration, 10 μL of each concentration of the peptide was mixed with 10 μL of the fluorescent labeled HylA. The MST measurement settings include medium MST power, 40% excitation power, Nano-RED excitation type and 25° C. thermostat temperature. Affinity of the peptide binding to HylA was determined by the MO.Affinity Analysis Software (Nanotemper Technologies, München, Germany).

rHylA = target: T2, rHylA (Cutibacterium acnes, UniProt A0A2B7ICX0); test: HA digested with rHylA in presence of inhibitor, digest applied to HaCaT cells, IL-6 by ELISA; type: cell-based, C. acnes; details: inhibitor 5 or 10 μM, HA 2 mg/ml digested with rHylA 24 hr, IL-6 in HaCaT culture supernatant
T2 construct: HylA (41-805) were cloned into; His6 (N); MBP (N); made in house; host or cells: E. coli BL21(DE3) pLysS
Experimental: HaCaT cells (ATCC) were cultured in complete DMEM media (Catalog no. 10-013-CV, Corning incorporated, USA) plus 10% heat-inactivated FBS in 5% C02 at 37° C. Before cell stimulation with digested HA (40 μg), HaCaT cells were seeded in 96-wells Falcon® 96-well tissue culture plate (Catalog no. #353072, corning incorporated, USA) at a concentration of 10^5 cells/ml and incubated in 5% CO2 at 37° C. for 6 hr, followed by washing with DMEM media and cell stimulation.
For BMDMs and HaCaT cell assays, an equivalent of 40 μg of HA digest was used to stimulate 10^5 cells for 8 and 16 hr, respectively. Cells were plated in a Falcon® 96-well tissue culture plate and cultured in 200 μl of complete RPMI medium supplemented with 10% FBS and 1× penicillin-streptomycin antibiotics solution. […]
IL-1β, IL-6, and TNF-α cytokine levels in skin homogenates, previously stored at −80° C., were measured by a solid-phase sandwich ELISA using commercially available mouse cytokine ELISA kits (Biolegend, San Diego, CA, USA). […] The plates were developed and read at optical density (OD) of 450 nm with a wavelength correction set to 570 nm in a multimode microplate reader (PerkinElmer, Waltham, MA, USA). […]

HL043PA1 strain = test: Mouse acne model, inhibitor co-injected i.d. with acne-associated HL043PA1 strain; type: in vivo, C. acnes; details: CD1 mice, 10 μg inhibitor co-injected i.d. with 2×10^7 CFU HL043PA1, disease score and skin cytokines 24 hr post-infection
Experimental: To model human acne disease, 8 weeks-old mice were i.d. infected with C. acnes strains (2×10^7 CFU in 50 μl volume of BHI media), followed by the topical application of synthetic sebum daily as described previously. i.d. infections were performed under vaporized Isoflurane (Fluriso, Vet One) anesthesia. Synthetic sebum was made by mixing fatty acid (17% oleic acid; Catalog no. #01008, Millipore Sigma), triglyceride (45% triolein; Catalog no. #ICN10312201, FisherScientific), wax monoester (25% jojoba oil, Trader Joe), and squalene (13%; Catalog no. #AC215351000, FisherScientific). One or two days after infection, disease score was assessed and the mice were euthanized by C02. Skin lesions were aseptically excised and harvested in phosphate buffer saline (PBS, pH 7.4). […]
Gross skin pathology was scored based on tabulation of the following: Erythematous change (no=0, mild=1, moderate 2, and marked=3); papule (flat=0, small=1, large=2. And extra-large=3) based on a protocol modified from.
For in vivo experiments, inhibitors (10 μg) were injected along with C. acnes strains (2×10^7 CFU) i.d. into CD1 mice, followed by the topical application of sebum. After 24 hr, bacterial count (CFU/ml), size of the skin lesions and proinflammatory cytokines (IL-1β, IL-6 and TNF-α) in skin lesions were measured. […]

[1] = target: C. acnes hyaluronidase HylA, recombinant (rHylA), fluorescently labeled (C. acnes); test: not given; MST against fluorescent labeled HylA per the methods
[2] = target: C. acnes hyaluronidase HylA, recombinant (rHylA), fluorescently labeled (C. acnes); test: Microscale thermophoresis (MST), peptide titrated against fluorescent labeled HylA
[3] = target: T3, C. acnes hyaluronidase HylA, recombinant (rHylA), fluorescently labeled (C. acnes, UniProt A0A2B7ICX0 41-805, Fluorescently labelled on cysteine(s) with the RED-MALEIMIDE 2nd generation dye. Which cysteine carries the dye is not stated.); test: not given; MST against fluorescent labeled HylA per the methods
T3 construct: TEV cleavage is described only for the crystallization preparation; not shown: N-terminal His6-MBP-TEV tag from the pET His6 MBP TEV LIC vector
T3 sequence: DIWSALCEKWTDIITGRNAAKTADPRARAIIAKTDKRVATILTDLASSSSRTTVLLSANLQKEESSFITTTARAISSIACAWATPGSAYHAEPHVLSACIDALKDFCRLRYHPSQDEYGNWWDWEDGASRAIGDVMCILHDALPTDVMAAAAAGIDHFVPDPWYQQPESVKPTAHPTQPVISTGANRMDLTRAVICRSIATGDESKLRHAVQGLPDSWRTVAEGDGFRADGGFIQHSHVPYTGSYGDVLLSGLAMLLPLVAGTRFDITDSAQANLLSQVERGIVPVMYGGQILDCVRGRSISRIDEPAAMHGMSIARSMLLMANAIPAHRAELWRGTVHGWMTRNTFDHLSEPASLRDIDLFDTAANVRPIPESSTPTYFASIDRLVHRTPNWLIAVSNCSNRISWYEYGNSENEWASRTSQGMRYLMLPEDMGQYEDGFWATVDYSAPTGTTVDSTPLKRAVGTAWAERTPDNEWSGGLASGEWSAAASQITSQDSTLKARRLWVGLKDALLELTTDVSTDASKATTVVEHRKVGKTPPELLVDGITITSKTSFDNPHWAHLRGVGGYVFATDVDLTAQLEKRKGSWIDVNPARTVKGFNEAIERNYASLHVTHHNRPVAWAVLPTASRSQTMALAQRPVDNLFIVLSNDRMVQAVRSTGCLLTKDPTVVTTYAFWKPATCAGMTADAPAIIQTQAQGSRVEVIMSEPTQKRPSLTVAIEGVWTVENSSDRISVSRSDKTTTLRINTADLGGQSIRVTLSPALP

[4] = target: T3, C. acnes hyaluronidase HylA, …; test: Microscale thermophoresis (MST), peptide titrated against fluorescent labeled HylA
[5] = target: T3, C. acnes hyaluronidase HylA, …; test: microscale thermophoresis (MST), peptide titrated against fluorescently labeled HylA, Kd model fit, mean +/- SD of triplicates
[6] = binding constant (KD), MST, peptide titrated against 30 nM fluorescent labeled HylA, values in running text and figure legend

NC(=O)[C@@H](CCC(=O)O)NC(=O)[C@H](CO)NC(=O)[C@@H](CCC(=O)O)NC(=O)[C@H](Cc1ccc(O)cc1)NC(=O)[C@@H](CCC(=O)O)NC(=O)[C@H](CC(=O)O)NC(=O)[C@@H](N)Cc1ccc(O)cc1 [i93, Tyr-Asp-dGlu-Tyr-dGlu-Ser-dGlu-NH2] (H-YD[dE]Y[dE]S[dE]-NH2; N-terminus assumed)
Kd (HylA; KD, table Peptides' properties): 140 µM
Kd (HylA; [6]): 911 µM

N[C@@H](Cc1ccc(O)cc1)C(=O)N[C@@H](CC(=O)O)C(=O)N[C@H](CCC(=O)O)C(=O)N[C@@H](Cc1ccc(O)cc1)C(=O)N[C@H](CCC(=O)O)C(=O)N[C@@H](CO)C(=O)N[C@H](CCC(=O)O)C(=O)O [i94, Tyr-Asp-dGlu-Tyr-dGlu-Ser-dGlu-OH] (H-YD[dE]Y[dE]S[dE]-OH; N-terminus assumed)
Kd (HylA; KD, table Peptides' properties): 4.3 µM

NC(=O)[C@@H](CCC(=O)O)NC(=O)[C@H](CO)NC(=O)[C@H](CC(=O)O)NC(=O)[C@H](Cc1ccc(O)cc1)NC(=O)[C@@H](CCC(=O)O)NC(=O)[C@H](CC(=O)O)NC(=O)[C@H](Cc1ccc(O)cc1)NC(=O)[C@@H](CCC(=O)O)NC(=O)[C@H](CO)NC(=O)[C@@H](CCC(=O)O)NC(=O)[C@H](Cc1ccc(O)cc1)NC(=O)[C@@H](CCC(=O)O)NC(=O)[C@H](CC(=O)O)NC(=O)[C@@H](N)Cc1ccc(O)cc1 [i932, Tyr-Asp-dGlu-Tyr-dGlu-Ser-dGlu-Tyr-Asp-dGlu-Tyr-Asp-Ser-dGlu-NH2] (H-YD[dE]Y[dE]S[dE]YD[dE]YDS[dE]-NH2; N-terminus assumed)
Kd (HylA; [6]): 3.06 µM
Kd (HylA; binding constant (KD), MST, peptide titrated against fluorescent labeled HylA, value): 0.0216 µM
efficacy in vitro (rHylA): highest efficacy
efficacy in vivo (HL043PA1 strain): highest efficacy

peptide i93, Tyr-Asp-dGlu-Tyr-dGlu-Ser-dGlu-NH2
Kd [1]: 140 µM
Kd [2]: 912 µM

peptide i94, Tyr-Asp-dGlu-Tyr-dGlu-Ser-dGlu-OH
Kd [1]: 4.3 µM

B1: peptide i933, Tyr-Cys-Asp-dGlu-Tyr-dGlu-Ser-dGlu-Cys-Tyr-NH2 (peptide)
peptide: YCD[dE]Y[dE]S[dE]CY-NH2
modifications: also: cyclic peptide with Cys2 and Cys9, mode of cyclization not given here
notes: also called 1933
Kd [3]: 292 µM
Kd [4]: 1.76 µM
EC50 (read off the curve) [5]: ~2 µM

B2: peptide i932, Tyr-Asp-dGlu-Tyr-dGlu-Ser-dGlu-Tyr-Asp-dGlu-Tyr-Asp-Ser-dGlu-NH2 (peptide)
peptide: YD[dE]Y[dE]S[dE]YD[dE]YDS[dE]-NH2
modifications: N-terminus assumed
SMILES: NC(=O)[C@@H](CCC(=O)O)NC(=O)[C@H](CO)NC(=O)[C@H](CC(=O)O)NC(=O)[C@H](Cc1ccc(O)cc1)NC(=O)[C@@H](CCC(=O)O)NC(=O)[C@H](CC(=O)O)NC(=O)[C@H](Cc1ccc(O)cc1)NC(=O)[C@@H](CCC(=O)O)NC(=O)[C@H](CO)NC(=O)[C@@H](CCC(=O)O)NC(=O)[C@H](Cc1ccc(O)cc1)NC(=O)[C@@H](CCC(=O)O)NC(=O)[C@H](CC(=O)O)NC(=O)[C@@H](N)Cc1ccc(O)cc1
notes: Designed by structure-based virtual screening against the HylA crystal structure; also called 1932
Kd [3]: 3.1 µM

Source: patent publication US20260217764A1, “SELECTIVE INHIBITORS OF C. ACNES HYALURONIDASE” (priority 2022, published 2026)
